Results on 16 molecules are retold here after ChEMBL document CHEMBL5442219.

Molecules are shown by their SMILES.

Settings in all cases: Compound concentration 10 µM
Experiment [1] concerns the target Delta-type opioid receptor (Homo sapiens) (UniProt P41143).
Description: PDSP Primary Binding target: OPRD1 - Compounds are tested at 10 uM concentration, plate are incubated at room temperature in the dark for 90 minutes. Reaction are stopped by vacuum filtration onto 0.3% polyethyleneimine soaked filter mats using Filtermate harvester. Scintilation cocktail is then melted onto microwave-dried filters on a hot plate and the radio activity is counted in Microbia counter.
Experiment [2] addresses T1, Alpha-2B adrenergic receptor (Homo sapiens) (UniProt P18089).
T1 sequence (whole entry): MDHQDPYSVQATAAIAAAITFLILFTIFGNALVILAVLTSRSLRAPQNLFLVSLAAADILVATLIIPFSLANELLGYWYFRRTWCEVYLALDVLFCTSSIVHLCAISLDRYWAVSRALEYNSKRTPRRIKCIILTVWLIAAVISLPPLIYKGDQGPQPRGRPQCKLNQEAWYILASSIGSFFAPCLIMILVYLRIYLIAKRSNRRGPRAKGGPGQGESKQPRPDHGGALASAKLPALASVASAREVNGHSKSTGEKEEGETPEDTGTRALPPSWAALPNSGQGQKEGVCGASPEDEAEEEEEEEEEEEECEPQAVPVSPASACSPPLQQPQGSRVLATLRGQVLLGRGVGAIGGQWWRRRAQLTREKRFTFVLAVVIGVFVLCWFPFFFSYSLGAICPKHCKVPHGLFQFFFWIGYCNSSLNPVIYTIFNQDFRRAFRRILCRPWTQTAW
Description: PDSP Primary Binding target: ADRA2B - Compounds are tested at 10 uM concentration, plate are incubated at room temperature in the dark for 90 minutes. Reaction are stopped by vacuum filtration onto 0.3% polyethyleneimine soaked filter mats using Filtermate harvester. Scintilation cocktail is then melted onto microwave-dried filters on a hot plate and the radio activity is counted in Microbia counter.

Experiment [3] concerns the target T2, Alpha-2A adrenergic receptor (Homo sapiens) (UniProt P08913).
T2 sequence (whole entry): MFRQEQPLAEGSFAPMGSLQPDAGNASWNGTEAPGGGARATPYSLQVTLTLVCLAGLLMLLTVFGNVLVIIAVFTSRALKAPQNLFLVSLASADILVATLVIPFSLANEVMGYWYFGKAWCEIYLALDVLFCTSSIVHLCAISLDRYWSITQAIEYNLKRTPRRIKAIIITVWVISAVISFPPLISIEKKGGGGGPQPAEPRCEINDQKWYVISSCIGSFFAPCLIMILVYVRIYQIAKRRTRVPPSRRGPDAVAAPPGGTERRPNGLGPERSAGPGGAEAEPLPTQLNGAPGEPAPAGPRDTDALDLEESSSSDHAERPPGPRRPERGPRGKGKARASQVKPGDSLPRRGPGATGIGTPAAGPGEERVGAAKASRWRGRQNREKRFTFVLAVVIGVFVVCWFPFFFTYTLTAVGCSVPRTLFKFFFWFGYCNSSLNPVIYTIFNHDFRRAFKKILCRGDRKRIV
Description: PDSP Primary Binding target: ADRA2A - Compounds are tested at 10 uM concentration, plate are incubated at room temperature in the dark for 90 minutes. Reaction are stopped by vacuum filtration onto 0.3% polyethyleneimine soaked filter mats using Filtermate harvester. Scintilation cocktail is then melted onto microwave-dried filters on a hot plate and the radio activity is counted in Microbia counter.

For experiment [4], the target named is Mu-type opioid receptor (Homo sapiens) (UniProt P35372).
Description: PDSP Primary Binding target: OPRM1 - Compounds are tested at 10 uM concentration, plate are incubated at room temperature in the dark for 90 minutes. Reaction are stopped by vacuum filtration onto 0.3% polyethyleneimine soaked filter mats using Filtermate harvester. Scintilation cocktail is then melted onto microwave-dried filters on a hot plate and the radio activity is counted in Microbia counter.
For experiment [5], the target named is 5-hydroxytryptamine receptor 6 (Homo sapiens) (UniProt P50406).
Description: PDSP Primary Binding target: HTR6 - Compounds are tested at 10 uM concentration, plate are incubated at room temperature in the dark for 90 minutes. Reaction are stopped by vacuum filtration onto 0.3% polyethyleneimine soaked filter mats using Filtermate harvester. Scintilation cocktail is then melted onto microwave-dried filters on a hot plate and the radio activity is counted in Microbia counter.
Experiment [6] concerns the target Sodium-dependent serotonin transporter (Homo sapiens) (UniProt P31645).
Description: PDSP Primary Binding target: SLC6A4 - Compounds are tested at 10 uM concentration, plate are incubated at room temperature in the dark for 90 minutes. Reaction are stopped by vacuum filtration onto 0.3% polyethyleneimine soaked filter mats using Filtermate harvester. Scintilation cocktail is then melted onto microwave-dried filters on a hot plate and the radio activity is counted in Microbia counter.
For experiment [7], the target named is T3, Alpha-1D adrenergic receptor (Homo sapiens) (UniProt P25100).
T3 sequence (whole entry): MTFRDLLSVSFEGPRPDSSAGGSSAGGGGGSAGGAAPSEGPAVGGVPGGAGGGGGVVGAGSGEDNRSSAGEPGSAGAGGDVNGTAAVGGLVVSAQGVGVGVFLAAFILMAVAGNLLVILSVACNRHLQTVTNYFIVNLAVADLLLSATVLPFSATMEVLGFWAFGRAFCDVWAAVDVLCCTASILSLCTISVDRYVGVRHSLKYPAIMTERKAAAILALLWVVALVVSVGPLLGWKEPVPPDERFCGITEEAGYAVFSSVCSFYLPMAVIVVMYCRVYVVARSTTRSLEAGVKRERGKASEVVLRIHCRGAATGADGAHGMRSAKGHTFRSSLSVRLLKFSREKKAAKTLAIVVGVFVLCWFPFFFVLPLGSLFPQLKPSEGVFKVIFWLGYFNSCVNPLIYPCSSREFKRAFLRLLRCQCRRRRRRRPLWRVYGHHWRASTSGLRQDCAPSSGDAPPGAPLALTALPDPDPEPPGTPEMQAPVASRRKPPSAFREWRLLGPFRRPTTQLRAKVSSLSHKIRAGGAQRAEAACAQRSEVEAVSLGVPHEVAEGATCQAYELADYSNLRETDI
Description: PDSP Primary Binding target: ADRA1D - Compounds are tested at 10 uM concentration, plate are incubated at room temperature in the dark for 90 minutes. Reaction are stopped by vacuum filtration onto 0.3% polyethyleneimine soaked filter mats using Filtermate harvester. Scintilation cocktail is then melted onto microwave-dried filters on a hot plate and the radio activity is counted in Microbia counter.

The target in experiment [8] is T4, Muscarinic acetylcholine receptor M2 (Homo sapiens) (UniProt P08172).
T4 sequence (whole entry): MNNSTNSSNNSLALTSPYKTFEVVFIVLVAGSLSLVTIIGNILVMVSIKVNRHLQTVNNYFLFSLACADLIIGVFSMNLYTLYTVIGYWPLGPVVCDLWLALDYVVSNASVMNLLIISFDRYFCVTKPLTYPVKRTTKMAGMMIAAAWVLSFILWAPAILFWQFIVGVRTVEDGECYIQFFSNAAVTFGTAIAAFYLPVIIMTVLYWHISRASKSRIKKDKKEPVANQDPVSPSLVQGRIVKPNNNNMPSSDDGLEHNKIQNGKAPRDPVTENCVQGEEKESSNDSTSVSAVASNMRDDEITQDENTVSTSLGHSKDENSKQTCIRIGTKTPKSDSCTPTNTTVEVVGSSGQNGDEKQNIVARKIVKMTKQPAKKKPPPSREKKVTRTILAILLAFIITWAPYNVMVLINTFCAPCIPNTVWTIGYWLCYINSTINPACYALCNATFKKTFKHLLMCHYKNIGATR
Description: PDSP Primary Binding target: CHRM2 - Compounds are tested at 10 uM concentration, plate are incubated at room temperature in the dark for 90 minutes. Reaction are stopped by vacuum filtration onto 0.3% polyethyleneimine soaked filter mats using Filtermate harvester. Scintilation cocktail is then melted onto microwave-dried filters on a hot plate and the radio activity is counted in Microbia counter.

Experiment [9] deals with T5, Alpha-1B adrenergic receptor (Homo sapiens) (UniProt P35368).
T5 sequence (whole entry): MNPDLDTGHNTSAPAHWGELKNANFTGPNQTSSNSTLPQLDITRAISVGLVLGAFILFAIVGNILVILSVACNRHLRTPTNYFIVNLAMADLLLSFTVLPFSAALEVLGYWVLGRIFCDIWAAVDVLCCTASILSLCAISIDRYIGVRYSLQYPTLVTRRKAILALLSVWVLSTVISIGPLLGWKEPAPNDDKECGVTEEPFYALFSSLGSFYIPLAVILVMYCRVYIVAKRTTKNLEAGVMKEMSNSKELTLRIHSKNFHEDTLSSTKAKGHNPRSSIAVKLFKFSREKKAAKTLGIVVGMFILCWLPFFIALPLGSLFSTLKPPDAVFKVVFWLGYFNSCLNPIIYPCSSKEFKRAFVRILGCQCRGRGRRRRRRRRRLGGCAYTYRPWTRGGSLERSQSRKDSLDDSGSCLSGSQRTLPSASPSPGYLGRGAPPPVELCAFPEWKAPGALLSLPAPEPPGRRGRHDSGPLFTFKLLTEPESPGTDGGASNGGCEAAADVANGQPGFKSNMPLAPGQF
Description: PDSP Primary Binding target: ADRA1B - Compounds are tested at 10 uM concentration, plate are incubated at room temperature in the dark for 90 minutes. Reaction are stopped by vacuum filtration onto 0.3% polyethyleneimine soaked filter mats using Filtermate harvester. Scintilation cocktail is then melted onto microwave-dried filters on a hot plate and the radio activity is counted in Microbia counter.

Sodium-dependent serotonin transporter (Homo sapiens), sequence (P31645 whole entry, looked up): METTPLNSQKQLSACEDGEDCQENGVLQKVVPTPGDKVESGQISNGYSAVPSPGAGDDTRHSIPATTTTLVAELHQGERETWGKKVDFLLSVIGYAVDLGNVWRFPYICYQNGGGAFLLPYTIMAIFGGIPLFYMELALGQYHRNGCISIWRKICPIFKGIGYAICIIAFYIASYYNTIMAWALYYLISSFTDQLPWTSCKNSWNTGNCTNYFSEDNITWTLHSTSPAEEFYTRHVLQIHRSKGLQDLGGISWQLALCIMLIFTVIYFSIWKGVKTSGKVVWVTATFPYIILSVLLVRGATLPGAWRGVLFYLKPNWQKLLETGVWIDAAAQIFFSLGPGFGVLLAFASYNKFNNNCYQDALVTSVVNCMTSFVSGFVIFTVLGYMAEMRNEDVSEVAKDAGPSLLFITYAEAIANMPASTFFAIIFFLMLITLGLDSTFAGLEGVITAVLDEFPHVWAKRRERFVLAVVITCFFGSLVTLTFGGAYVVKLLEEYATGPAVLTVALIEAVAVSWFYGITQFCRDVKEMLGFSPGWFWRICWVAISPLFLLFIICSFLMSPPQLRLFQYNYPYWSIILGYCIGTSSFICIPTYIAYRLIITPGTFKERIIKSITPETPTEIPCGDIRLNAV
Mu-type opioid receptor (Homo sapiens), sequence (P35372 whole entry): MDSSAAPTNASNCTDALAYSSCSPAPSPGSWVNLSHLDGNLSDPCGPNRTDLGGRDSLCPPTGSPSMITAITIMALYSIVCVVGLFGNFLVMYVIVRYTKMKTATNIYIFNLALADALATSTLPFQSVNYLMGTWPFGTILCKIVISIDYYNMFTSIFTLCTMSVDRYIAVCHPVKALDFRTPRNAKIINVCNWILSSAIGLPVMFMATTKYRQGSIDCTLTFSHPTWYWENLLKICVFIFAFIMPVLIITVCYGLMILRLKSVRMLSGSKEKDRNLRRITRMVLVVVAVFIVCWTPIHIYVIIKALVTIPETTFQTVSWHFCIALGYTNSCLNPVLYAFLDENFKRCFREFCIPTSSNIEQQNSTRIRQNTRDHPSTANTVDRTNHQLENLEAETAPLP
5-hydroxytryptamine receptor 6 (Homo sapiens), sequence (P50406 whole entry): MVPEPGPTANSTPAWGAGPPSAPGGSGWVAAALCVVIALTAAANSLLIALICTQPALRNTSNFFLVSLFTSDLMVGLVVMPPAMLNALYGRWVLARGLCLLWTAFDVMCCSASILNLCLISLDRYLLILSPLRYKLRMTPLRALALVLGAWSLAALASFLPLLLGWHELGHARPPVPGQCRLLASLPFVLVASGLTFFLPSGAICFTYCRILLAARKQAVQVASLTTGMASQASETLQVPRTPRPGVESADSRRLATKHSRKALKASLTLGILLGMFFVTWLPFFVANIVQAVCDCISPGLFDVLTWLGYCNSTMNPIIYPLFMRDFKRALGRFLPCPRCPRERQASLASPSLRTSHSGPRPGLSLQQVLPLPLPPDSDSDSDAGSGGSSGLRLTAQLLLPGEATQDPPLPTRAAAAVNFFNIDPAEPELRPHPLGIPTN
Delta-type opioid receptor (Homo sapiens), sequence (P41143 whole entry): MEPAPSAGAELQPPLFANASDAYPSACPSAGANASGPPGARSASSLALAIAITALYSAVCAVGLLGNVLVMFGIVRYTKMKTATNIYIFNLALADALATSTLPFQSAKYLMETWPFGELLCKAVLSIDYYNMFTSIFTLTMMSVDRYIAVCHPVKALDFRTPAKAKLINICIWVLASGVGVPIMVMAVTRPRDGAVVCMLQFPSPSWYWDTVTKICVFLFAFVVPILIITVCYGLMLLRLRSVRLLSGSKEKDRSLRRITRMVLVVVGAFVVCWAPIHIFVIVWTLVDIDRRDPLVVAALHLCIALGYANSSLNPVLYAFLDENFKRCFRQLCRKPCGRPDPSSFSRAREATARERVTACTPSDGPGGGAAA

As usually defined, the inhibition is the relative decrease from the control value, in per cent. For `O=c1ccn([C@@H]2O[C@H](COP(=O)(O)OP(=O)(O)OP(=O)(O)O)[C@@H](O)[C@H]2O)c(=O)[nH]1`, the inhibition is -0.41% in experiment [1]; 0.09% in experiment [2]; 11.6% in experiment [3]; 27.4% in experiment [4]; 11.9% in experiment [5]; 13.8% in [6]. The inhibition in experiment [7] is 11.6%.

Consider `O=C(O)C1CN(Cc2ccc(-c3nc4cc(Cc5ccccc5F)ccc4s3)c(F)c2)C1`, for which the inhibition in experiment [1] was -3.98%; in [4], -9.83%; in [5] it was 8.45%; in [6], -1.28%; in experiment [8], -8.59%.

As for `Cc1ccc2c(c1)c1c(n2CCc2ccc(C)nc2)CCN(C)C1`, the inhibition in experiment [1] was 1.39%; in [2] it was 91.7%; in [3], 69.7%; in experiment [4], 2.42%; in experiment [5], 90.6%; in experiment [6], -8.68%. Also, the inhibition is 85% in experiment [9] and 84.6% in [7].

`CCc1nn(CCCN2CCN(c3cccc(Cl)c3)CC2)c(=O)n1CCOc1ccccc1`: the inhibition in [1] is 13%; in experiment [2], 103%; in [3], 91.1%; in [4] it was 32.2%; in experiment [5], 74.7%; in experiment [6], 84.9%. Moreover, the inhibition in experiment [9] was 97.5%; in experiment [7] it was 83.9%.

As for `FC(F)(F)c1c(N2CCC(c3ccccc3)CC2)ccn2c(CC3CC3)nnc12`, the inhibition is 19.7% in [4]; -9.81% in experiment [5]; 42.4% in experiment [6]; -3.82% in [7]; 7.85% in [8].

In the case of `CC(C)[C@H](CO)Nc1nc(Nc2cccc(Cl)c2)c2ncn(C(C)C)c2n1`, the inhibition was 5.89% in experiment [1]; 28.1% in experiment [2]; 6.44% in experiment [3]; 9.06% in [4]; 52.3% in experiment [5]; 3.66% in [6]. Also, the figures for the inhibition in experiment [9] and in [7] were 12.9% and 13%, respectively.

For `Cc1cc([C@@H](C)Nc2cccc(-c3cc(C)c(C(=O)N[C@@H](C)C(=O)O)c(C)c3)c2)ccc1Cl`, the inhibition was 35.9% in [1]; 24.6% in experiment [2]; 16.5% in [4]; -2.64% in experiment [5]; -8.16% in experiment [6]; 2.88% in experiment [8].

In the case of `Cc1cc(C)cc(-c2cnc3cc(Cl)c(-c4cccc(O)c4)cc3c2OCCCN)c1`, the inhibition was 50.2% in experiment [1]; 25.7% in experiment [2]; 64.9% in [3]; 75.9% in experiment [4]; 59% in experiment [5]; 48.9% in experiment [6]. Also, the values for the inhibition in experiment [9] and in [7] were 81.8% and 53.7%, respectively.

For `CCc1cc2c(cc1CC)CC(NC[C@H](O)c1ccc(O)c3[nH]c(=O)ccc13)C2`, the inhibition was 1.1% in experiment [1]; 38.5% in [2]; 42.1% in [3]; 21% in experiment [4]; 52.9% in experiment [6]; 59% in [9]. Also, the inhibition in experiment [7] was 75.3%.

Consider `Cc1ccccc1N1CCN(S(=O)(=O)C[C@]23CC[C@H](C[C@@H]2NC(=O)[C@@H](N)CCS(C)(=O)=O)C3(C)C)CC1`, for which the inhibition in experiment [1] was 7.82%; in experiment [2], 11.2%; in experiment [3], 27.8%; in experiment [4] it was 15.9%; in experiment [5] it was 0.91%; in [6], -9.42%. Also, the inhibition in experiment [9] is -3.68%; in [7] it was 4.26%.

For `O=C(O)CC1CCC2(CC1)CCN(c1cc(OC(F)(F)F)ccc1Cl)CC2`, the inhibition in experiment [1] is -0.66%; in [4] it was 34.3%; in experiment [5] it was 14.2%; in experiment [6], 29.8%; in experiment [9], 0.25%; in experiment [8] it was 27.1%.

`Cc1nn(C)c(C)c1-c1cccc2c1CC[C@H](N(C)C)C2`: the inhibition is -4.68% in [1]; 92.2% in experiment [2]; 89.8% in experiment [3]; 14.6% in experiment [4]; -8.86% in [5]; 3.62% in experiment [6]. In addition, the inhibition was 1.62% in experiment [9] and 2.35% in experiment [7].

For `CCCNS(=O)(=O)Nc1ncnc(OCCOc2ncc(Br)cn2)c1-c1ccc(Br)cc1`, the inhibition in [1] is 23.6%; in experiment [4] it was 30.6%; in experiment [5], 2.99%; in experiment [6], 67.2%; in experiment [9], 12.1%; in experiment [7], 0.01%. Besides, the inhibition in experiment [8] is -6.56%.

Take `CO[C@@H]1COCC[C@@H]1N[C@@H]1CC[C@@](C(=O)N2CCc3ncc(C(F)(F)F)cc3C2)(C(C)C)C1`: the inhibition in experiment [1] was -2.34%; in experiment [4] it was 11.2%; in [5] it was 3.16%; in experiment [6], -2.04%; in experiment [9], 2.58%; in experiment [7], -8.81%. Also, in [8], the inhibition was 8.25%.

With `CS(=O)(=O)NC[C@H]1CC[C@H](Nc2nc3c(s2)CCSc2ccccc2-3)CC1`, the inhibition in experiment [1] is 4.54%; in experiment [2], 23.8%; in [3], 0.86%; in experiment [4], -6.3%; in experiment [5], 35%; in experiment [6] it was 13.6%. Moreover, the inhibition was -8.21% in experiment [9] and 2.44% in experiment [7].

As for `CCC[C@H](Oc1cc(C)c(-n2cc(C(F)(F)F)cn2)c(C)c1)c1ccc(C(=O)NCCC(=O)O)cc1`, the inhibition is 27% in [1]; -4.35% in experiment [2]; 11% in experiment [4]; -2.41% in experiment [5]; -5.66% in experiment [6]; -6.26% in [8].
